The record followed here is ChEMBL document CHEMBL5143586, “Advances in the Development of Nonpeptide Small Molecules Targeting Ghrelin Receptor” (J Med Chem, 2022).

As a reminder, the Ki is the dissociation constant of the complex between target and ligand, obtained from inhibition or displacement.

Assay [1] is described as follows: Binding affinity at mouse pancreas GHS-R1a assessed as inhibition constant. The assay is classed as tissue-based.
The target in assay [2] is T1, Growth hormone secretagogue receptor type 1 (Homo sapiens, UniProt Q92847). The experiment in a line: Inverse agonist activity at GHS-R1a (unknown origin) relative to control. The assay is classed as functional.
T1 sequence (Q92847 whole entry): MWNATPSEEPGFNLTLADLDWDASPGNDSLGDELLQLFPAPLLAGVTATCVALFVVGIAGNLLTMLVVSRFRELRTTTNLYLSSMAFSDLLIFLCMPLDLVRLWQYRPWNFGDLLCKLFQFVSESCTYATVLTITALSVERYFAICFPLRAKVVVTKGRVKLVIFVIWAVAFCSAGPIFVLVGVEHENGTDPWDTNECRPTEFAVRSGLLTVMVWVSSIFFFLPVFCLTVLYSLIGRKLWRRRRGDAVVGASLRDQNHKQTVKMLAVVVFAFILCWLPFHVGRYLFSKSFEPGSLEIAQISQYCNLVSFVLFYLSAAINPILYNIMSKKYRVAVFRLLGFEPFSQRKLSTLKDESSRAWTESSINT
For assay [3], the target named is T1, Growth hormone secretagogue receptor type 1. The experiment in a line: Binding affinity at GHS-R1a (unknown origin) assessed as inhibition constant.
For assay [4] the target is unchanged. As to the kind of experiment: Antagonist activity at GHS-R1a (unknown origin) relative to control. The assay is classed as functional.

In the case of `C[C@H]1CN(C(=O)c2ccc(-c3ccc(O[11CH3])cc3)cc2)CCN1C(=O)c1ccc2cc[nH]c2c1`, the inhibitory constant (Ki) in assay [1] was 7 nM. As to `COc1ccc(Cn2c([C@@H](Cc3c[nH]c4ccccc34)NC(=O)[C@H](CC(C)C)NC(=O)[C@H](CC(C)C)NC(C)=O)nnc2[C@@H](Cc2c[nH]c3ccccc23)NC(=O)[C@@H](N)CCCCN)cc1`, in assay [2], the Emax is -37%. In assay [3], the Ki came to 3 nM. Consider `CC(C)C[C@H](NC(=O)[C@H](CC(C)C)NC(=O)[C@@H](Cc1c[nH]c2ccccc12)NC(=O)[C@H](Cc1ccccc1)NC(=O)[C@@H](Cc1c[nH]c2ccccc12)NC(=O)[C@@H](N)CCCCN)C(N)=O`, for which the Emax in assay [2] is -55%. For `COc1ccc(Cn2c([C@@H](Cc3c[nH]c4ccccc34)NC(=O)CO)nnc2[C@@H](Cc2c[nH]c3ccccc23)NC(=O)[C@H](CC(C)C)NC(=O)[C@H](CC(C)C)NC(C)=O)cc1`, in assay [4], the Emax turned out to be 0%. Turning to `Cc1ccccc1-c1nc2ccc(-c3ccc(Cl)cc3)cc2c(=O)n1C[C@@H]1CCCN(CCO[11CH3])C1`, in assay [1], the inhibition constant Ki was determined as 4 nM. As for `Cc1ccccc1-c1nc2ccc(-c3ccc(Cl)cc3)cc2c(=O)n1C[C@@H]1CCCN(CC[18F])C1`, the inhibition constant (Ki) in assay [1] worked out at 16 nM.
